In US11180496B2 (Daewoong Pharmaceutical Co., Ltd., priority 2017, dated 2021):

Columns and labels:
ITK = target: T1, ITK (Homo sapiens, UniProt Q08881); assay: ITK inhibitory activity, ADP-Glo + ITK Kinase enzyme system kit (Promega); format: biochemical; conditions: ITK enzyme 0.4 ng/uL, ATP 25 uM, 15 min preincubation, luminescence, duplicate
T1 construct: purchased Promega
T1 sequence (Q08881 1-620): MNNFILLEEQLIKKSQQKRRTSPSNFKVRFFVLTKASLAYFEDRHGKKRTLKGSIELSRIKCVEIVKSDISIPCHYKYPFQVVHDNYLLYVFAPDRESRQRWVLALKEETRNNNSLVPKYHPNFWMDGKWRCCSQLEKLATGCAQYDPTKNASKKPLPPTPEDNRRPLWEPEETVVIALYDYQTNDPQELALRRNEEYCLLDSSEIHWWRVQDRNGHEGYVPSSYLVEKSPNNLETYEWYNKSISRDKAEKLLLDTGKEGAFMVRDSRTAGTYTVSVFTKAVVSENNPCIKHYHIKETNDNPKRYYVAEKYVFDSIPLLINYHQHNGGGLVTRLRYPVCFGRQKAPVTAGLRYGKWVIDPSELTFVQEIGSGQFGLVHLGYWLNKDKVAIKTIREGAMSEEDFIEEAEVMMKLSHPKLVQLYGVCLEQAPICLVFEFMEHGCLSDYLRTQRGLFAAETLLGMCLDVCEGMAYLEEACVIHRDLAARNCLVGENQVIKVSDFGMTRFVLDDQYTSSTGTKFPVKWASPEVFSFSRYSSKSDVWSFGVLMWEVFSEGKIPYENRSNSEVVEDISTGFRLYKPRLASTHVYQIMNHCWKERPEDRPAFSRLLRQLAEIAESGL
Method: (§1) The inhibitory activity against BTK and ITK of the compounds prepared in Examples above were measured as follows.
(§2) The inhibitory activity against ITK was evaluated using ‘ADP-Glo™+ITK Kinase enzyme system’ kit from Promega. […] 5 uL of substrate and 5 uL of ATP prepared at a final concentration of 25 uM were added to all wells of the plate after completion of the reaction, and allowed to react at 30° C. for 1 hour. All wells of the plate after completion of the reaction were treated with 25 uL of ADP-Glo™ reagent and reacted at 30° C. for 40 minutes. Then, 50 uL of the kinase detection buffer was applied to all wells of the plate, and then the light was blocked and reacted at 30° C. for 30 minutes. For the plate for which all reactions were completed, the luminescence was measured and the results were calculated. The evaluation was performed in duplicate. The respective values of negative and positive controls, depending on whether the enzymes were added without treatment of the compound, were determined, and IC50 was calculated based on the values.

BTK = target: T2, BTK (Homo sapiens, UniProt Q06187); assay: BTK inhibitory activity, ADP-Glo + BTK Kinase enzyme system kit (Promega); format: biochemical; conditions: BTK enzyme 1 ng/uL, ATP 10 uM, 15 min preincubation, luminescence, duplicate
T2 construct: purchased Promega
Method: as §1
as §2, with “against BTK” for “against ITK”, “using ‘ADP-Glo™+BTK” for “using ‘ADP-Glo™+ITK”, “of 10” for “of 25”

T2 sequence (Q06187 whole entry): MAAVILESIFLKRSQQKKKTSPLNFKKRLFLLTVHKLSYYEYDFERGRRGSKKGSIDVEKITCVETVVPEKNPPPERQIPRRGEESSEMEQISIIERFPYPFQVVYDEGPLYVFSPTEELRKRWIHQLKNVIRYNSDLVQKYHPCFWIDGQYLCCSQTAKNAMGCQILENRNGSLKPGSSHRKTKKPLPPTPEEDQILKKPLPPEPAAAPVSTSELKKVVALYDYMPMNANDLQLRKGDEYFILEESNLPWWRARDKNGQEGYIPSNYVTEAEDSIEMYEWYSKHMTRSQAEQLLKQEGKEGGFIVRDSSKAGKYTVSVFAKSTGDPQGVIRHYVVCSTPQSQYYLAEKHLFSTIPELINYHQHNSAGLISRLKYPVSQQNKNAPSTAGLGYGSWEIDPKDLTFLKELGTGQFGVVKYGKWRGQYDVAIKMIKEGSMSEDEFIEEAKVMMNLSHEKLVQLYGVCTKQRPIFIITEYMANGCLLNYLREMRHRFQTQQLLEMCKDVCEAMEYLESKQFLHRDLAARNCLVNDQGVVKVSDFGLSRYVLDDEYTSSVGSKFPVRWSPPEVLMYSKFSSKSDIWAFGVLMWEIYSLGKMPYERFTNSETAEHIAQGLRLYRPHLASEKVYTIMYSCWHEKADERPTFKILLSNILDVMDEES

| IC50 (ITK) [nM] | IC50 (BTK) [nM] | Structure (SMILES) |
| --- | --- | --- |
| 9.3 | 8.8 | C=CC(=O)N1CCC[C@@H](n2nc(-c3ccc(C(=O)Nc4ccccn4)cc3Cl)c3c(N)ncc(Cl)c32)C1 [Example 58, (R)-4-(1-(1-acryloylpiperidin-3-yl)-4-amino-7-chloro-1H-pyrazolo[4,3-c]pyridin-3-yl)-3-chloro-N-(pyridin-2-yl)benzamide] |
| 30.8 | 0.5 | C=CC(=O)N1CC2CC1[C@H](n1nc(-c3ccc(C(=O)Nc4ccccn4)cc3F)c3c(N)nccc31)C2 (stereo partly drawn) [Example 51, 4-(1-((6R)-2-acryloyl-2-azabicyclo[2.2.1]heptan-6-yl)-4-amino-1H-pyrazolo[4,3-c]pyridin-3-yl)-3-fluoro-N-(pyridin-2-yl)benzamide] |
| > 1000 | 15.2 | C=CC(=O)N1CCC[C@@H](n2nc(-c3ccc(C(=O)Nc4ccccn4)cc3)c3c(N)ncc(Br)c32)C1 [Example 20, (R)-4-(1-(1-acryloylpiperidin-3-yl)-4-amino-7-bromo-1H-pyrazolo[4,3-c]pyridin-3-yl)-N-(pyridin-2-yl)benzamide] |
| 66.8 | 11.2 | C=CC(=O)N1CCC[C@@H](n2nc(-c3ccc(C(=O)Nc4ccccn4)cc3)c3c(N)ncc(C)c32)C1 [Example 45, (R)-4-(1-(1-acryloylpiperidin-3-yl)-4-amino-7-methyl-1H-pyrazolo[4,3-c]pyridin-3-yl)-N-(pyridin-2-yl)benzamide] |
| > 1000 | 7.7 | C=CC(=O)N1CCC(n2nc(-c3ccc(Oc4ccccc4)cc3)c3c(N)ncc(I)c32)CC1 [Example 12, 1-(4-(4-amino-7-iodo-3-(4-phenoxyphenyl)-1H-pyrazolo[4,3-c]pyridin-1-yl)piperidin-1-yl)prop-2-en-1-one] |
| > 1000 | 10.7 | C=CC(=O)N1CCC[C@@H](n2nc(-c3ccc(C(=O)Nc4ccccn4)cc3)c3c(N)ncc(I)c32)C1 [Example 21, (R)-4-(1-(1-acryloylpiperidin-3-yl)-4-amino-7-iodo-1H-pyrazolo[4,3-c]pyridin-3-yl)-N-(pyridin-2-yl)benzamide] |
| 2.4 | 2.2 | C=CC(=O)N1CCC[C@@H](n2nc(C(=O)Nc3nc4ccccc4o3)c3c(N)ncc(Cl)c32)C1 [Example 75, (R)-1-(1-acryloylpiperidin-3-yl)-4-amino-N-(benzo[d]oxazol-2-yl)-7-chloro-1H-pyrazolo[4,3-c]pyridine-3-carboxamide] |
| 5.2 | 2 | C=CC(=O)N1CCC[C@@H](n2nc(-c3ccc(C(=O)Nc4ccccn4)cc3Cl)c3c(N)ncc(-c4cn[nH]c4)c32)C1 [Example 70, (R)-4-(1-(1-acryloylpiperidin-3-yl)-4-amino-7-(1H-pyrazol-4-yl)-1H-pyrazolo[4,3-c]pyridin-3-yl)-3-chloro-N-(pyridin-2-yl)benzamide] |
| 1.3 | 0.4 | C=CC(=O)N1CCC[C@@H](n2nc(-c3ccc(C(=O)Nc4ccccn4)cc3Cl)c3c(N)ncc(I)c32)C1 [Example 65, (R)-4-(1-(1-acryloylpiperidin-3-yl)-4-amino-7-iodo-1H-pyrazolo[4,3-c]pyridin-3-yl)-3-chloro-N-(pyridin-2-yl)benzamide] |
| 4.1 | 3.4 | C=CC(=O)N1CCC[C@@H](n2nc(C(=O)Nc3nc4cc(Cl)ccc4o3)c3c(N)nccc32)C1 [Example 71, (R)-1-(1-acryloylpiperidin-3-yl)-4-amino-N-(5-chlorobenzo[d]oxazol-2-yl)-1H-pyrazolo[4,3-c]pyridine-3-carboxamide] |
| > 500 | 3.7 | C=CC(=O)N1CCC(n2nc(-c3ccc(Oc4ccccc4)cc3)c3c(N)ncc(/C=C/c4ccc(F)cc4)c32)CC1 [Example 15, (E)-1-(4-(4-amino-7-(4-fluorostyryl)-3-(4-phenoxyphenyl)-1H-pyrazolo[4,3-c]pyridin-1-yl)piperidin-1-yl)prop-2-en-1-one] |
| 26 | 3.7 | C=CC(=O)N1CCC[C@@H](n2nc(-c3ccc(C(=O)Nc4ccccn4)cc3OC)c3c(N)ncc(Cl)c32)C1 [Example 59, (R)-4-(1-(1-acryloylpiperidin-3-yl)-4-amino-7-chloro-1H-pyrazolo[4,3-c]pyridin-3-yl)-3-methoxy-N-(pyridin-2-yl)benzamide] |
| 13.1 | 5 | C=CC(=O)N1CCC[C@@H](n2nc(C(=O)Nc3nc4ccccc4o3)c3c(N)nccc32)C1 [Example 77, (R)-1-(1-acryloylpiperidin-3-yl)-4-amino-N-(benzo[d]oxazol-2-yl)-1H-pyrazolo[4,3-c]pyridine-3-carboxamide] |
| > 500 | 8 | C=CC(=O)N1CCC[C@@H](n2nc(-c3ccc(C(=O)Nc4ccccc4)cc3)c3c(N)ncc(CO)c32)C1 [Example 27, (R)-4-(1-(1-acryloylpiperidin-3-yl)-4-amino-7-(hydroxymethyl)-1H-pyrazolo[4,3-c]pyridin-3-yl)-N-phenylbenzamide] |
| 181 | 4.4 | C=CC(=O)N1CCC[C@@H](n2nc(-c3ccc(C(=O)Nc4ccccc4)cc3)c3c(N)ncc(-c4cn[nH]c4)c32)C1 [Example 28, (R)-4-(1-(1-acryloylpiperidin-3-yl)-4-amino-7-(1H-pyrazol-4-yl)-1H-pyrazolo[4,3-c]pyridin-3-yl)-N-phenylbenzamide] |
| 91.3 | 3 | C=CC(=O)N1CCC[C@@H](n2nc(-c3ccc(C(=O)Nc4ccccc4)cc3)c3c(N)ncc(-c4cnn(CCN5CCCC5)c4)c32)C1 [Example 37, (R)-4-(1-(1-acryloylpiperidin-3-yl)-4-amino-7-(1-(2-(pyrrolidin-1-yl)ethyl)-1H-pyrazol-4-yl)-1H-pyrazolo[4,3-c]pyridin-3-yl)-N-phenyl benzamide] |
| 22.5 | 1.1 | C=CC(=O)N1CC(n2nc(-c3ccc(C(=O)Nc4ccccn4)cc3Cl)c3c(N)ncc(Cl)c32)C1 [Example 64, 4-(1-(1-acryloylazetidin-3-yl)-4-amino-7-chloro-1H-pyrazolo[4,3-c]pyridin-3-yl)-3-chloro-N-(pyridin-2-yl)benzamide] |
| > 1000 | 180 | C=CC(=O)N1CC[C@H](n2nc(-c3ccc(C(=O)Nc4ccccc4)cc3)c3c(N)nccc32)C1 [Example 47, (S)-4-(1-(1-acryloylpyrrolidin-3-yl)-4-amino-1H-pyrazolo[4,3-c]pyridin-3-yl)-N-phenylbenzamide] |
| > 1000 | 2.7 | C=CC(=O)N1CCC(n2nc(-c3ccc(Oc4ccccc4)cc3)c3c(N)nccc32)CC1 [Example 3, 1-(4-(4-amino-3-(4-phenoxyphenyl)-1H-pyrazolo[4,3-c]pyridin-1-yl)piperidin-1-yl)prop-2-en-1-one] |
| 15.7 | 3.5 | C#CC(=O)N1CCCC(n2nc(-c3ccc(Oc4ccccc4)cc3)c3c(N)nccc32)C1 (stereo not drawn) [Example 2, 1-(3-(4-amino-3-(4-phenoxyphenyl)-1H-pyrazolo[4,3-c]pyridin-1-yl)piperidin-1-yl)prop-2-yn-1-one] |
| 61 | 1.9 | C=CC(=O)N1CCC[C@@H](n2nc(-c3ccc(C(=O)Nc4ccccc4)cc3)c3c(N)ncc(-c4cnn(C5CCN(C)CC5)c4)c32)C1 [Example 35, (R)-4-(1-(1-acryloylpiperidin-3-yl)-4-amino-7-(1-(1-methylpiperidin-4-yl)-1H-pyrazol-4-yl)-1H-pyrazolo[4,3-c]pyridin-3-yl)-N-phenylbenzamide] |
